Values of other authors, collected in patent publication US6461634B1, “Food-based delivery of HGH-stimulating and other nutritional supplements” (priority 1999, dated 2002).

Test system: HGH
Settings: 5 mg melatonin taken orally one hour prior to vigorous exercise, versus vigorous exercise alone; healthy adult male subjects

In the case of `COc1ccc2[nH]cc(CCNC(C)=O)c2c1` [melatonin], the “increase in HGH resulting from vigorous exercise” value is given as “triple”.
